According to article PMC8777605 (Pharmaceuticals, 2021):
Entries after “also recorded” stand apart in the source; their conditions may differ. Read-outs that look alike come from different tables or passages of the source.

Tests used:
[1] = test system: human platelet-poor plasma clotting; assay: Plasma clotting time (fibrin formation); details: three concentrations of ATV, Figure S3
Description: Human blood samples were collected from healthy donors in 3.8% trisodium citrate (9:1, v/v), and platelet-poor plasma was obtained by centrifugation at 3000 rpm for 10 min. […] Time for clot formation was recorded in triplicates.

Cytotoxic assay = type: cell-based; details: African green monkey, table title says Calu-3 cells, method says Vero cells
Description: All experiments were carried out at least three independent times and each data was analyzed from Prism GraphPad software 8.0 (Windows GraphPad Software, San Diego, CA, USA). The results were presented as mean ± standard deviation (SD).

[2] = target: T1, SARS-CoV-2 main protease (M^pro) (Severe acute respiratory syndrome coronavirus 2, UniProt P0DTD1); assay: biochemical
T1 construct: purchased BPS Bioscience #79955-1
Description: (§1) Fluorescence signal was measured at an emission wavelength of 460 nm with excitation at 360 nm in a GloMax® (Promega, Madison, WI, USA) plate reader. Morrison’s inhibitory constant (Ki) was calculated by non-linear regression using GraphPad Prism 9. […] After fluorescence quantification, the Michaelis–Menten constant (Km) and maximum velocity (Vmax) were calculated by non-linear regression using GraphPad Prism 9. The value was presented as mean ± standard deviation (SD).

[3] = Pharmacokinetics in plasma and lungs after oral dosing; type: in vivo, Swiss–Webster mice; details: mice, 60 mg/kg oral
Description: Each treatment group had five animals. After these periods of times, total blood and lungs were collected. Plasma was obtained by blood centrifugation at 8000× g for 15 min. Time zero was obtained by analyzing the matrix pool (blood plasma) of untreated animals. The pharmacokinetic parameters of half-life (t1/2, h), time until maximum concentration is reached (tmax, h), maximum compound concentration (Cmax, ng/mL) and area under the curve (AUC, h.ng/mL) were determined. The experiments performed in this section were approved by the Committee on the Use of Laboratory Animals of the Oswaldo Cruz Foundation (CEUA-FIOCRUZ, license L003/21).

[4] = test system: SARS-CoV-2 gamma strain (P1, B.1.1.28); assay: microbe, parasite or virus in culture; details: Severe acute respiratory syndrome coronavirus 2, Calu-3, 48 h
SARS-CoV-2 B.1 lineage = assay: microbe, parasite or virus in culture; type: cell-based
SARS-CoV-2 gamma strain = type: in vivo, K18-hACE2 mice
[5] = target: T2, SARS-CoV-2 papain-like protease (PL^pro) (Severe acute respiratory syndrome coronavirus 2, UniProt P0DTD1); assay: SARS-CoV-2 PL^pro enzymatic assay (BPS Bioscience kit); type: biochemical
T2 construct: purchased BPS Bioscience #79995-1
Description: as §1

[6] = test system: SARS-CoV-2 gamma strain (P1, B.1.1.28)

COC(=O)N[C@H](C(=O)N[C@@H](Cc1ccccc1)[C@@H](O)CN(Cc1ccc(-c2ccccn2)cc1)NC(=O)[C@@H](NC(=O)OC)C(C)(C)C)C(C)(C)C [ATV, atazanavir]
Anti-clotting activity [1]: could not prevent hemorrhage as an anti-clotting agent
CC50 at 3 days (Cytotoxic assay): 312 ± 8 µM
Ki [2]: 703 ± 79 nM
Increase of M^pro's Km by the inhibitor ([2]; 2.5 μM ATV versus absence): more than sixfold
Inhibition profile (mechanism) ([2]; Vmax not different, Km increased): competitive inhibition profile
Maximum velocity (Vmax) of M^pro ([2]; in the presence of 2.5 μM ATV, substrate 0–100 μM): 24.94 ± 3.70 µM/min
AUC ([3]; Swiss-Webster, mouse, plasma): 14300 ng·h/mL
Cmax ([3]; Swiss-Webster, mouse, plasma): 7430 ng/mL
Tmax ([3]; Swiss-Webster, mouse, plasma): 1 h
half-life ([3]; Swiss-Webster, mouse, plasma): 594 min
Distribution to the lung ([3]; AUC lung versus plasma): concentrated in the lung
EC50 [4]: 399 ± 20 nM
EC50 (SARS-CoV-2 B.1 lineage): 321 ± 16 nM
EC50 (SARS-CoV-2 B.1 lineage; Severe acute respiratory syndrome coronavirus 2, Calu-3, 48 h): 490 ± 20 nM
Body weight, treated versus untreated infected mice (SARS-CoV-2 gamma strain; 60 mg/kg oral daily): not a statical difference
Lung injury (hemorrhage, shrinking of lobe, bronchiole and alveoli), histology (SARS-CoV-2 gamma strain; 60 mg/kg oral daily): reduced
SARS-CoV-2-induced IL-6 levels in the BAL and in the lungs (SARS-CoV-2 gamma strain; 60 mg/kg oral daily): reduced
Levels of IL-6, TNF-a, KC and PF4 in the BAL (SARS-CoV-2 gamma strain; 60 mg/kg oral daily, compared to untreated mice): lower levels
Animal survival (in words) (SARS-CoV-2 gamma strain; mouse, in vivo): statistically significant increase
Cell death (LDH activity) in BAL (SARS-CoV-2 gamma strain; mouse, in vivo): significantly decreased
Enhancement of survival (SARS-CoV-2 gamma strain; mouse, in vivo): 30%
Polymorphonuclear and mononuclear cell counts in BAL (SARS-CoV-2 gamma strain; mouse, in vivo): significantly decreased
SARS-CoV-2 RNA levels in BAL (SARS-CoV-2 gamma strain; mouse, in vivo): significantly decreased
Inhibition of PL^pro (in words) ([5]; 0–10 μM): did not inhibit; also recorded: above the threshold of in vitro inhibition
Ki ([5]; 100 nM PL^pro, 25 μM substrate, 45–60 min, 0–10 μM inhibitor, read-out: Morrison's inhibitory constant (Ki)): 9.87 µM

CCC(CC)COC(=O)[C@H](C)N[P@](=O)(OC[C@H]1O[C@@](C#N)(c2ccc3c(N)ncnn23)[C@H](O)[C@@H]1O)Oc1ccccc1 [RDV, remdesivir]
CC50 at 3 days (Cytotoxic assay): 512 ± 30 µM
SI (CC50/EC50) [6]: 4530
EC50 [4]: 113 ± 10 nM
